# Reference: ChEMBL document CHEMBL3885861, “Open TG-GATES”
# Species: Rattus norvegicus
# Assay: Open TG-GATES - Regimen: Single
# Format: toxicity, organism-based, Sprague-Dawley
# Set-up: regimen Single, gender Male, age 6 weeks
# Conditions: in vivo, po, route gavage; for Bas / Eos / Ht / Lym / MCH / Mono / Neu / RBC / Ret: tissue Blood; for KIDNEY_L / KIDNEY_R / KIDNEY_TOTAL: tissue Kidney; for LIVER: tissue Liver; for ALP / ALT / AST / CRE / Ca / DBIL / IP / K / LDH / Na / PL / RALB / TBIL / TC / TG / TP / gamma-GTP: tissue Plasma
# [1] = 600 mg/kg, 3 h, dose level Middle
# [2] = 600 mg/kg, 6 h, dose level Middle
# [3] = 600 mg/kg, 9 h, dose level Middle
# [4] = 600 mg/kg, 24 h, dose level Middle
# [5] = 2000 mg/kg, 3 h, dose level High
# [6] = 2000 mg/kg, 6 h, dose level High
# [7] = 2000 mg/kg, 9 h, dose level High
# [8] = 2000 mg/kg, 24 h, dose level High
smiles,measurement,setting,value
COc1cc2ncnc(Nc3ccc(F)c(Cl)c3)c2cc1OCCCN1CCOCC1 [GEFITINIB],Bas,[1],0%
same,Eos,[1],0.6%
same,Ht,[1],37%
same,Lym,[1],75%
same,MCH,[1],21.1 pg
same,Mono,[1],2.4%
same,Neu,[1],21%
same,RBC,[1],588 x10_4/ul
same,Ret,[1],9.3%
same,KIDNEY_L,[1],1 g
same,KIDNEY_R,[1],1 g
same,KIDNEY_TOTAL,[1],1.9 g
same,LIVER,[1],9.7 g
same,ALP,[1],1687 IU/L
same,ALT,[1],58.6 IU/L
same,AST,[1],80.8 IU/L
same,CRE,[1],0.1 mg/dL
same,Ca,[1],9.7 mg/dL
same,DBIL,[1],0.016 mg/dL
same,IP,[1],8.6 mg/dL
same,K,[1],3.9 meq/L
same,LDH,[1],191.4 IU/L
same,Na,[1],141.8 meq/L
same,PL,[1],141 mg/dL
same,RALB,[1],3.9 g/dL
same,TBIL,[1],0.074 mg/dL
same,TC,[1],87.2 mg/dL
same,TG,[1],49.7 mg/dL
same,TP,[1],5.4 g/dL
same,gamma-GTP,[1],1 IU/L
same,TERMINAL_BW,[2],210.3 g
same,Bas,[2],0%
same,Eos,[2],0.6%
same,Ht,[2],36.6%
same,Lym,[2],80.2%
same,MCH,[2],21.1 pg
same,Mono,[2],2.6%
same,Neu,[2],15.6%
same,RBC,[2],582 x10_4/ul
same,Ret,[2],8.9%
same,KIDNEY_L,[2],0.9 g
same,KIDNEY_R,[2],0.9 g
same,KIDNEY_TOTAL,[2],1.9 g
same,LIVER,[2],9.1 g
same,ALP,[2],1267.2 IU/L
same,ALT,[2],59.4 IU/L
same,AST,[2],82 IU/L
same,CRE,[2],0.1 mg/dL
same,Ca,[2],9.8 mg/dL
same,DBIL,[2],0.016 mg/dL
same,IP,[2],8.8 mg/dL
same,K,[2],4 meq/L
same,LDH,[2],200.4 IU/L
same,Na,[2],141.3 meq/L
same,PL,[2],152.8 mg/dL
same,RALB,[2],3.9 g/dL
same,TBIL,[2],0.078 mg/dL
same,TC,[2],96 mg/dL
same,TG,[2],42.8 mg/dL
same,TP,[2],5.4 g/dL
same,gamma-GTP,[2],1 IU/L
same,TERMINAL_BW,[3],212.8 g
same,Bas,[3],0%
same,Eos,[3],0.8%
same,Ht,[3],37%
same,Lym,[3],77.6%
same,MCH,[3],21.1 pg
same,Mono,[3],3%
same,Neu,[3],18%
same,RBC,[3],587 x10_4/ul
same,Ret,[3],9.2%
same,KIDNEY_L,[3],0.9 g
same,KIDNEY_R,[3],1 g
same,KIDNEY_TOTAL,[3],1.9 g
same,LIVER,[3],8.9 g
same,ALP,[3],1338.6 IU/L
same,ALT,[3],51 IU/L
same,AST,[3],71.2 IU/L
same,CRE,[3],0.2 mg/dL
same,Ca,[3],9.9 mg/dL
same,DBIL,[3],0.016 mg/dL
same,IP,[3],9.1 mg/dL
same,K,[3],4.2 meq/L
same,LDH,[3],160.6 IU/L
same,Na,[3],143.1 meq/L
same,PL,[3],153 mg/dL
same,RALB,[3],3.8 g/dL
same,TBIL,[3],0.076 mg/dL
same,TC,[3],96 mg/dL
same,TG,[3],46.7 mg/dL
same,TP,[3],5.4 g/dL
same,gamma-GTP,[3],0.9 IU/L
same,TERMINAL_BW,[4],211.6 g
same,Bas,[4],0%
same,Eos,[4],0.8%
same,Ht,[4],40%
same,Lym,[4],66.2%
same,MCH,[4],20.7 pg
same,Mono,[4],3.6%
same,Neu,[4],29%
same,RBC,[4],625.6 x10_4/ul
same,Ret,[4],7.6%
same,KIDNEY_L,[4],0.9 g
same,KIDNEY_R,[4],1 g
same,KIDNEY_TOTAL,[4],1.9 g
same,LIVER,[4],8.9 g
same,ALP,[4],1287.2 IU/L
same,ALT,[4],42 IU/L
same,AST,[4],73.8 IU/L
same,CRE,[4],0.2 mg/dL
same,DBIL,[4],0.008 mg/dL
same,IP,[4],8.9 mg/dL
same,K,[4],4.3 meq/L
same,LDH,[4],178.6 IU/L
same,Na,[4],142.8 meq/L
same,PL,[4],186.2 mg/dL
same,RALB,[4],4 g/dL
same,TBIL,[4],0.058 mg/dL
same,TC,[4],126.4 mg/dL
same,TG,[4],65 mg/dL
same,TP,[4],5.5 g/dL
same,gamma-GTP,[4],1.2 IU/L
same,TERMINAL_BW,[5],214.3 g
same,Bas,[5],0%
same,Eos,[5],0.6%
same,Ht,[5],37.2%
same,Lym,[5],68%
same,MCH,[5],21.3 pg
same,Mono,[5],3%
same,Neu,[5],27.6%
same,RBC,[5],591 x10_4/ul
same,Ret,[5],9.4%
same,KIDNEY_L,[5],0.9 g
same,KIDNEY_R,[5],0.9 g
same,KIDNEY_TOTAL,[5],1.8 g
same,LIVER,[5],9.4 g
same,ALP,[5],1590.6 IU/L
same,ALT,[5],71 IU/L
same,AST,[5],87.4 IU/L
same,CRE,[5],0.1 mg/dL
same,Ca,[5],9.9 mg/dL
same,DBIL,[5],0.012 mg/dL
same,IP,[5],9.1 mg/dL
same,K,[5],3.9 meq/L
same,LDH,[5],236 IU/L
same,Na,[5],141.9 meq/L
same,PL,[5],145.4 mg/dL
same,RALB,[5],3.9 g/dL
same,TBIL,[5],0.072 mg/dL
same,TC,[5],91.2 mg/dL
same,TG,[5],56.5 mg/dL
same,TP,[5],5.4 g/dL
same,gamma-GTP,[5],0.9 IU/L
same,TERMINAL_BW,[6],213.7 g
same,Bas,[6],0%
same,Eos,[6],0.8%
same,Ht,[6],37.3%
same,Lym,[6],76.4%
same,MCH,[6],21.3 pg
same,Mono,[6],3.2%
same,RBC,[6],589.2 x10_4/ul
same,Ret,[6],9%
same,KIDNEY_L,[6],0.9 g
same,KIDNEY_R,[6],1 g
same,KIDNEY_TOTAL,[6],1.9 g
same,LIVER,[6],9.1 g
same,ALP,[6],1266.2 IU/L
same,ALT,[6],56.2 IU/L
same,AST,[6],78.6 IU/L
same,CRE,[6],0.2 mg/dL
same,Ca,[6],9.6 mg/dL
same,DBIL,[6],0.024 mg/dL
same,IP,[6],9.1 mg/dL
same,K,[6],3.9 meq/L
same,LDH,[6],184.6 IU/L
same,Na,[6],140.7 meq/L
same,PL,[6],150.8 mg/dL
same,RALB,[6],3.8 g/dL
same,TBIL,[6],0.092 mg/dL
same,TC,[6],99.6 mg/dL
same,TG,[6],30 mg/dL
same,TP,[6],5.4 g/dL
same,gamma-GTP,[6],0.9 IU/L
same,TERMINAL_BW,[7],212.3 g
same,Bas,[7],0%
same,Eos,[7],0.2%
same,Ht,[7],37.4%
same,Lym,[7],76.2%
same,MCH,[7],21.1 pg
same,Mono,[7],2.4%
same,Neu,[7],20.4%
same,RBC,[7],592.6 x10_4/ul
same,Ret,[7],9.3%
same,KIDNEY_L,[7],0.9 g
same,KIDNEY_R,[7],1 g
same,KIDNEY_TOTAL,[7],1.9 g
same,LIVER,[7],8.6 g
same,ALP,[7],1162 IU/L
same,ALT,[7],56.4 IU/L
same,AST,[7],77.4 IU/L
same,CRE,[7],0.1 mg/dL
same,Ca,[7],9.6 mg/dL
same,DBIL,[7],0.028 mg/dL
same,IP,[7],8.7 mg/dL
same,K,[7],3.8 meq/L
same,LDH,[7],210.6 IU/L
same,Na,[7],142.6 meq/L
same,PL,[7],148.2 mg/dL
same,RALB,[7],3.8 g/dL
same,TBIL,[7],0.1 mg/dL
same,TC,[7],98 mg/dL
same,TG,[7],29 mg/dL
same,TP,[7],5.4 g/dL
same,gamma-GTP,[7],0.9 IU/L
same,TERMINAL_BW,[8],204 g
same,Bas,[8],0%
same,Eos,[8],0.5%
same,Ht,[8],40.5%
same,Lym,[8],59.8%
same,MCH,[8],21 pg
same,Mono,[8],3.5%
same,Neu,[8],35.8%
same,RBC,[8],632 x10_4/ul
same,Ret,[8],8.1%
same,KIDNEY_L,[8],0.9 g
same,KIDNEY_R,[8],0.9 g
same,KIDNEY_TOTAL,[8],1.9 g
same,LIVER,[8],8.6 g
same,ALP,[8],1061.5 IU/L
same,ALT,[8],76.8 IU/L
same,AST,[8],126 IU/L
same,CRE,[8],0.2 mg/dL
same,DBIL,[8],0.03 mg/dL
same,IP,[8],8.4 mg/dL
same,K,[8],3.5 meq/L
same,LDH,[8],272 IU/L
same,Na,[8],143.2 meq/L
same,PL,[8],144.8 mg/dL
same,RALB,[8],3.9 g/dL
same,TBIL,[8],0.1 mg/dL
same,TC,[8],111.2 mg/dL
same,TG,[8],39.6 mg/dL
same,TP,[8],5.4 g/dL
same,gamma-GTP,[8],1.4 IU/L
